Measured values reported in patent US7674819B2 (Warner-Lambert Company LLC, priority 2005, dated 2010).
Residue numbers refer to the chain shown, from its start. Where two headings read alike, the source gives them in different places.

Columns and labels:
[1] = target: T1, hAR (Homo sapiens, UniProt P10275); assay: Competitive binding of 3H-DHT to baculovirus/Sf9 generated hAR extracts; details: one hour at 4° C., mean of multiple tests
T1 sequence (P10275 1-920): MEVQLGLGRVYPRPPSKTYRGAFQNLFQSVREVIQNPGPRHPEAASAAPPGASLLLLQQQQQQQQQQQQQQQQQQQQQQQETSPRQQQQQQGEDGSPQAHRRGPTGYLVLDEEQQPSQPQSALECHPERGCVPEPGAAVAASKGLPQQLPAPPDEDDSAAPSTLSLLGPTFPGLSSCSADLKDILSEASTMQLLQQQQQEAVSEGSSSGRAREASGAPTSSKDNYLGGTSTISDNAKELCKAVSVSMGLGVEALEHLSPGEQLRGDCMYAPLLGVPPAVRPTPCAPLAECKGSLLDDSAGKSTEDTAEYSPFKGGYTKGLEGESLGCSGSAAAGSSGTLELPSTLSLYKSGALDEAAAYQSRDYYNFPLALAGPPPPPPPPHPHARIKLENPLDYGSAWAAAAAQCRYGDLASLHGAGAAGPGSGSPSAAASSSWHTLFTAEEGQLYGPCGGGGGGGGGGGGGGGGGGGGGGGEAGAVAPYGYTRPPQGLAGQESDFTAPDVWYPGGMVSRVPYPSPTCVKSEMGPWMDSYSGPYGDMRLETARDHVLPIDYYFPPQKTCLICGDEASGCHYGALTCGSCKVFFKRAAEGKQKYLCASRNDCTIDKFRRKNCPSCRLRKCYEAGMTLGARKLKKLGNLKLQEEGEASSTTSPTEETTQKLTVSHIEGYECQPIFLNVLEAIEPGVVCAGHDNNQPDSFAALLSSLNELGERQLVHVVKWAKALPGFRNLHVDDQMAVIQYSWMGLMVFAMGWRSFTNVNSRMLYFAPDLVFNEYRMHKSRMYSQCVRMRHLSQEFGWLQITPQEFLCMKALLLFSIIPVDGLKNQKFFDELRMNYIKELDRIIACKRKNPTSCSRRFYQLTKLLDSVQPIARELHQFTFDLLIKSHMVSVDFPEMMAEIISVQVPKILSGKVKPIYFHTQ
Procedure: The description below describes how the assay was carried out.
Competitive binding analysis was performed on baculovirus/Sf9 generated hAR extracts in the presence or absence of different concentrations of test agent and a fixed concentration of ^3H-dihydrotestosterone (^3H-DHT) as tracer. This binding assay method is a modification of a protocol previously described (Liao S., et. al. J. Steroid Biochem. 20:11-17 1984). Briefly, progressively decreasing concentrations of compounds are incubated in the presence of hAR extract (Chang et al. P.N.A.S. Vol. 89, pp. […], 1992), hydroxylapatite, and 1 nM^3H-DHT for one hour at 4° C. Subsequently, the binding reactions are washed three times to completely remove excess unbound ^3H-DHT. hAR bound ^3H-DHT levels are determined in the presence of compounds (i.e. competitive binding) and compared to levels bound when no competitor is present (i.e. maximum binding). Compound binding affinity to the hAR is expressed as the concentration of compound at which one half of the maximum binding is inhibited.

[2] = target: T2, androgen receptor (Homo sapiens, UniProt P10275); assay: AR Antagonist Cell Assay (MDA-MB453-MMTV clone 54-19, luciferase reporter); type: cell-based; details: inhibition of induction by DHT (final concentration at 100 μM), 17 hr, compound 0.32-1000 nM, mean of multiple tests
T2 sequence (P10275 1-920 Q868H): T1 sequence (P10275 1-920) with Q868H
Procedure: The compounds ability to antagonize the effects of androgen on the androgen receptor were determined in a whole cell assay as described immediately below.
Experimental Procedure for AR Antagonist Cell Assay
This cell line is a stable transfected cell line with MDA-MB453 cell background (a human breast tumor cell line expressing androgen receptor). A MMTV minimal promoter containing ARE was first cloned in front of a firefly luciferase reporter gene. Then the cascade was cloned into transfection vector pUV120puro. […] Puromycin resistant stable cell line was selected.
Cell Culture Media and Reagents:
Plating medium: DMEM (phenol red free), 10% charcoal treated HyClone serum, 1% L-glutamine
Assay medium: DMEM (phenol red free), 1% charcoal treated HyClone serum, 1% L-glutamine, 1% penicillin/streptomycin
Cells are maintained in culture medium, splitting cells when they reach 80-90% confluence
To test compounds, 10,000 cells/well are plated to opaque 96 cell culture plate in 100 ul/well plating medium, culture for overnight at 37° C. in cell culture incubator
Add 10 ul/well freshly prepared DHT (final concentration at […]) to each well, incubate at 37° C. for 17 hr (overnight)
Add 50 ul/well 3× luciferase buffer, incubate at room temperature for 5 minutes, then count on Luminometer
The results are reported as the mean of multiple tests described below (the numbers of tests are indicated in the footnote). N.D. denotes that the compound was not tested.

[3] = concentration at which one half of maximum binding of 1 nM 3H-DHT to hAR is inhibited, read-out: IC50
[4] = IC50, concentration at which one half of maximum binding of 1 nM 3H-DHT to hAR is inhibited

Q: How did the IC50 [1, 3] turn out when `C[C@@H](c1ccccc1)N1CC(C)(C)C(Oc2ccc(C#N)c(C(F)(F)F)c2)C1=O` (mixture of isomers) [Example 69, (+)-4-[4,4-Dimethyl-2-oxo-1-(1-phenyl-ethyl)-pyrrolidin-3-yloxy]-2-trifluoromethyl-benzonitrile] was run?
A: Its IC50 is 258 nM.

Q: And the IC50 ([2]; read-out: IC50)?
A: The IC50 was 331 nM.

Q: Which results are given for `COC(=O)c1cccc(CN2CC(C)(C)C(Oc3ccc(C#N)c(C(F)(F)F)c3)C2=O)c1` (racemic) [Example 25, (±)-3-[3-(4-Cyano-3-trifluoromethyl-phenoxy)-4,4-dimethyl-2-oxo-pyrrolidin-1-ylmethyl]-benzoic acid methyl ester]?
A: IC50 [1, 4]: 48 nM; IC50 ([2]; read-out: IC50): 107 nM

Q: Which IC50 [1, 3] does the source give for `C[C@@H](c1ccc(F)cc1)N1CC(C)(C)[C@@H](Oc2ccc(C#N)c(C(F)(F)F)c2)C1=O` (racemic) [Example 71, (±)-4-{1-[1-(4-Fluoro-phenyl)-ethyl]-4,4-dimethyl-2-oxo-pyrrolidin-3-yloxy}-2-trifluoromethyl-benzonitrile] here?
A: The IC50 was 104 nM.

Q: What about the IC50 [2] of the same compound?
A: Its IC50 is 6 nM.

Q: How did the IC50 [1, 4] turn out when `CCCC(C)N1CC(C)(C)C(Oc2ccc(C#N)c(C(F)(F)F)c2)C1=O` (racemic) [Example 72, (±)-4-[4,4-Dimethyl-1-(1-methyl-butyl)-2-oxo-pyrrolidin-3-yloxy]-2-trifluoromethyl-benzonitrile] was run?
A: The IC50 was 203 nM.

Q: And the IC50 [2]?
A: The IC50 was 7 nM.

Q: `CC1(C)CN(Cc2ccc(O)cc2)C(=O)C1Oc1ccc(C#N)c(C(F)(F)F)c1` (single isomer, unassigned) [Example 9, 4-[1-(4-Hydroxy-benzyl)-4,4-dimethyl-2-oxo-pyrrolidin-3-yloxy]-2-trifluoromethyl-benzonitrile] was tested. Which IC50 [1, 4] did it give?
A: The IC50 was 18 nM.

Q: What about the IC50 [2] of the same compound?
A: The IC50 was 46 nM.

Q: Which results are given for `CC1(C)CN(S(C)(=O)=O)C(=O)C1Oc1ccc(C#N)c(C(F)(F)F)c1` (single isomer, unassigned) [Example 100, 4-(1-Methanesulfonyl-4,4-dimethyl-2-oxo-pyrrolidin-3-yloxy)-2-trifluoromethyl-benzonitrile]?
A: IC50 [1, 4]: 12 nM; IC50 [2]: 12 nM

Q: `CSCN1CC(C)(C)C(Oc2ccc(C#N)c(C(F)(F)F)c2)C1=O` (single isomer, unassigned) [Example 100B, 4-(4,4-Dimethyl-1-methylsulfanylmethyl-2-oxo-pyrrolidin-3-yloxy)-2-trifluoromethyl-benzonitrile] was tested. Which IC50 [1, 4] did it give?
A: Its IC50 is 76 nM.

Q: And the IC50 [2]?
A: The IC50 was 24 nM.

Q: Which results are given for `CC1(C)CN(S(=O)(=O)C2CC2)C(=O)C1Oc1ccc(C#N)c(C(F)(F)F)c1` (single isomer, unassigned) [Example 100C, 4-(1-Cyclopropanesulfonyl-4,4-dimethyl-2-oxo-pyrrolidin-3-yloxy)-2-trifluoromethyl-benzonitrile]?
A: IC50 [1, 4]: 59 nM; IC50 [2]: 38 nM

Q: `CC1(C)CN(Cc2ccccc2)C(=O)C1Oc1ccc(C#N)c(C(F)(F)F)c1` (single isomer, unassigned; (+)) [Example 6, (+)-4-(1-Benzyl-4,4-dimethyl-2-oxo-pyrrolidin-3-yloxy)-2-trifluoromethyl-benzonitrile] was tested. Which IC50 [1, 4] did it give?
A: Its IC50 is 31 nM.

Q: What about the IC50 [2] of the same compound?
A: The IC50 was 136 nM.

Q: With `CC1(C)CN(Cc2cccc(O)c2)C(=O)C1Oc1ccc(C#N)c(C(F)(F)F)c1` (single isomer, unassigned; (+)) [Example 14, (+)-4-[1-(3-Hydroxy-benzyl)-4,4-dimethyl-2-oxo-pyrrolidin-3-yloxy]-2-trifluoromethyl-benzonitrile] as the compound, how does the IC50 [1, 4] read?
A: Its IC50 is 23 nM.

Q: What about the IC50 [2] of the same compound?
A: The IC50 was 99 nM.

Q: For `COc1cccc(C(C)N2CC(C)(C)C(Oc3ccc(C#N)c(C(F)(F)F)c3)C2=O)c1` (single isomer, unassigned; (+)) [Example 23, (+)-4-{1-[1-(3-Methoxy-phenyl)-ethyl]-4,4-dimethyl-2-oxo-pyrrolidin-3-yloxy}-2-trifluoromethyl-benzonitrile], which IC50 [1, 4] is on record?
A: The IC50 was 64 nM.

Q: What about the IC50 [2] of the same compound?
A: Its IC50 is 58 nM.

Q: For `CC1(C)CN(S(C)(=O)=O)C(=O)C1Oc1ccc(C#N)c(C(F)(F)F)c1` (single isomer, unassigned; (+)) [Example 96, (+)-4-(1-Methanesulfonyl-4,4-dimethyl-2-oxo-pyrrolidin-3-yloxy)-2-trifluoromethyl-benzonitrile], which IC50 ([1]; concentration at which one half of maximum binding of 1 nM 3H-DHT to hAR is inhibited) is on record?
A: Its IC50 is 12 nM.

Q: What about the IC50 [2] of the same compound?
A: The IC50 was 36 nM.

Q: What does the source list for `CCCC(=O)N1CC(C)(C)C(Oc2ccc(C#N)c(C(F)(F)F)c2)C1=O` (single isomer, unassigned; (+)) [Example 103, (+)-4-(1-Butyryl-4,4-dimethyl-2-oxo-pyrrolidin-3-yloxy)-2-trifluoromethyl-benzonitrile (single enantiomer)]?
A: IC50 [1, 3]: 130 nM; IC50 ([2]; read-out: IC50): 125 nM

Q: For `CC1(C)CN(C(=O)c2ccccc2)C(=O)C1Oc1ccc(C#N)c(C(F)(F)F)c1` (single isomer, unassigned; (+)) [Example 105, (+)-4-(1-Benzoyl-4,4-dimethyl-2-oxo-pyrrolidin-3-yloxy)-2-trifluoromethyl-benzonitrile], which IC50 [1, 3] is on record?
A: Its IC50 is 252 nM.

Q: And the IC50 [2]?
A: Its IC50 is 22 nM.

Q: `CC1(C)CN(Cc2ccccc2)C(=O)C1Oc1ccc(C#N)c(C(F)(F)F)c1` (centres unmarked) [Example 5, 4-(1-Benzyl-4,4-dimethyl-2-oxo-pyrrolidin-3-yloxy)2-trifluoromethyl-benzonitrile] was tested. Which IC50 [1, 4] did it give?
A: Its IC50 is 32 nM.

Q: What about the IC50 [2] of the same compound?
A: Its IC50 is 12 nM.

Q: Which results are given for `CC1(C)CN(Cc2ccc(O)cc2)C(=O)C1Oc1ccc(C#N)c(C(F)(F)F)c1` (centres unmarked) [Example 8, 4-[1-(4-Hydroxy-benzyl)-4,4-dimethyl-2-oxo-pyrrolidin-3-yloxy]-2-trifluoromethyl-benzonitrile]?
A: IC50 [1, 4]: 17 nM; IC50 [2]: 33 nM
